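In this assay, cells in 96-well plates receive the compound at five concentrations for 48 hours. Endpoints are linearly interpolated between the surrounding concentrations. GI50 is the concentration that inhibits growth by half.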 Calls of active or inactive are those of the source. Cut-off read from the data, not from the text of the source: active = GI50 up to about 1.1 µM and inactive = higher.
Assays:
Assay in all cases: growth of human tumour cells (NCI), 48 h
SN12C = system: SN12C
Hs-578T = system: Hs-578T
MDA-N = system: MDA-N
CAKI-1 = system: CAKI-1
NCI/ADR-RES = system: NCI/ADR-RES
RPMI-8226 = system: RPMI-8226
UACC-257 = system: UACC-257
SNB-19 = system: SNB-19
K562 = system: K562
RXF 393 = system: RXF 393
SK-MEL-28 = system: SK-MEL-28
HL-60 = system: HL-60
BT-549 = system: BT-549
HOP-92 = system: HOP-92
LXFL 529 = system: LXFL 529
M14 = system: M14
NCI-H226 = system: NCI-H226
SK-MEL-5 = system: SK-MEL-5
NCI-H23 = system: NCI-H23
SK-OV-3 = system: SK-OV-3

Measured: GI50

OCC(O)C(O)C(O)C1SC(c2ccccc2)=NN1c1ccccc1 (stereo not drawn)
inactive: SN12C > 91.8 µM | Hs-578T 35.1 µM | MDA-N > 82.4 µM | CAKI-1 > 100 µM | NCI/ADR-RES > 70.1 µM | RPMI-8226 > 86.3 µM | UACC-257 > 89.1 µM | SNB-19 49.8 µM | K562 > 70.1 µM | RXF 393 20.4 µM | SK-MEL-28 > 81.5 µM | HL-60 > 88.7 µM | BT-549 > 100 µM | HOP-92 27 µM | LXFL 529 > 95.5 µM | M14 83 µM | NCI-H226 > 76 µM | SK-MEL-5 > 78.5 µM | NCI-H23 45.7 µM | SK-OV-3 36.9 µM

CCCCCCCCC(C)CCCCCCCCC(=O)OCC(COP(=O)([O-])OCC[N+](C)(C)C)OC(=O)CCCCCCCCC(C)CCCCCCCC (stereo not drawn)
inactive: SN12C > 100 µM | CAKI-1 > 100 µM | RPMI-8226 > 100 µM | UACC-257 > 100 µM | SNB-19 > 100 µM | K562 > 100 µM | RXF 393 > 100 µM | SK-MEL-28 > 100 µM | HL-60 > 100 µM | HOP-92 > 100 µM | LXFL 529 > 100 µM | M14 > 100 µM | NCI-H226 > 100 µM | SK-MEL-5 > 100 µM | NCI-H23 > 100 µM | SK-OV-3 > 100 µM

COc1cc(/C=N/N=C(\N)NO)c([N+](=O)[O-])cc1OC
inactive: SN12C 27 µM | CAKI-1 20.4 µM | RPMI-8226 73.8 µM | UACC-257 73.1 µM | SNB-19 79.6 µM | K562 36.5 µM | RXF 393 33.7 µM | SK-MEL-28 > 100 µM | HL-60 26.8 µM | HOP-92 29.2 µM | LXFL 529 27 µM | M14 41.1 µM | NCI-H226 14.7 µM | SK-MEL-5 18 µM | NCI-H23 32.4 µM | SK-OV-3 23.3 µM

COc1ccc(C2C(Cl)C(=O)N2NC(=O)c2ccc(N)cc2)cc1OC (stereo not drawn)
inactive: SN12C 9.95 µM | MDA-N 9.46 µM | CAKI-1 2.92 µM | NCI/ADR-RES 1.97 µM | RPMI-8226 3.1 µM | UACC-257 14.5 µM | SNB-19 13.9 µM | K562 3.12 µM | RXF 393 15.3 µM | SK-MEL-28 2.48 µM | HL-60 1.64 µM | BT-549 5.04 µM | HOP-92 2 µM | LXFL 529 1.95 µM | M14 8.43 µM | NCI-H226 18.7 µM | SK-MEL-5 12.2 µM | NCI-H23 6.08 µM | SK-OV-3 18.8 µM

CC(=O)c1cccc(NC(=O)C(=O)C(C2OC(=O)c3ccccc32)[N+](=O)[O-])c1 (stereo not drawn)
inactive: SN12C > 100 µM | CAKI-1 > 100 µM | RPMI-8226 > 100 µM | UACC-257 > 100 µM | SNB-19 > 100 µM | K562 > 100 µM | RXF 393 > 100 µM | SK-MEL-28 > 100 µM | HL-60 > 100 µM | HOP-92 > 100 µM | LXFL 529 > 100 µM | M14 > 100 µM | NCI-H226 > 100 µM | SK-MEL-5 > 100 µM | NCI-H23 > 100 µM | SK-OV-3 > 100 µM

O=C(O)C(=O)/C=C\c1ccc(Cl)cc1
inactive: SN12C > 100 µM | CAKI-1 > 100 µM | RPMI-8226 > 100 µM | UACC-257 > 100 µM | SNB-19 > 100 µM | K562 > 100 µM | RXF 393 > 100 µM | SK-MEL-28 > 100 µM | HL-60 > 100 µM | HOP-92 80.9 µM | LXFL 529 > 100 µM | M14 > 100 µM | NCI-H226 > 100 µM | SK-MEL-5 > 100 µM | NCI-H23 > 100 µM | SK-OV-3 > 100 µM

Cc1ccc2[nH]c(=O)c(C(C#N)c3ccccc3)nc2c1 (stereo not drawn)
inactive: SN12C 49.5 µM | CAKI-1 34.6 µM | RPMI-8226 15.6 µM | UACC-257 59.8 µM | SNB-19 27.4 µM | K562 47.9 µM | RXF 393 23 µM | SK-MEL-28 60.4 µM | HOP-92 32.7 µM | LXFL 529 32.7 µM | M14 41.8 µM | NCI-H226 30.1 µM | SK-MEL-5 19 µM | NCI-H23 60.8 µM | SK-OV-3 50.7 µM

O=c1c2cc(-c3ccccc3)sc2nc2sc(-c3ccccc3)nn12
inactive: SN12C > 100 µM | CAKI-1 > 100 µM | RPMI-8226 > 100 µM | UACC-257 > 100 µM | SNB-19 > 100 µM | K562 > 100 µM | RXF 393 > 100 µM | HL-60 > 100 µM | HOP-92 > 100 µM | LXFL 529 > 100 µM | M14 > 100 µM | NCI-H226 > 100 µM | SK-MEL-5 > 100 µM | NCI-H23 > 100 µM | SK-OV-3 > 100 µM

Reference: ChEMBL document CHEMBL1201862, “PubChem BioAssay data set” (2004)
